# Experimental data from PubChem BioAssay (NCI).
#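 96-well plates; 48 h exposure; 5 concentrations. Endpoints by linear interpolation between flanking doses. Not reached: highest tested concentration assigned. At the TGI there is no net growth.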
# Tests used:
# Test in all cases: NCI-60 cell line screen, 48 h
# 786-0 renal = test system: 786-0 renal
# A498 renal = test system: A498 renal
# A549 NSCLC = test system: A549 NSCLC
# ACHN renal = test system: ACHN renal
# BT-549 breast = test system: BT-549 breast
# CAKI-1 renal = test system: CAKI-1 renal
# CCRF-CEM leukemia = test system: CCRF-CEM leukemia
# COLO 205 colon = test system: COLO 205 colon
# DU-145 prostate = test system: DU-145 prostate
# EKVX NSCLC = test system: EKVX NSCLC
# HCC-2998 colon = test system: HCC-2998 colon
# HCT-116 colon = test system: HCT-116 colon
# HL-60(TB) leukemia = test system: HL-60(TB) leukemia
# HOP-62 NSCLC = test system: HOP-62 NSCLC
# HOP-92 NSCLC = test system: HOP-92 NSCLC
# HS 578T breast = test system: HS 578T breast
# HT29 colon = test system: HT29 colon
# IGROV1 ovarian = test system: IGROV1 ovarian
# K-562 leukemia = test system: K-562 leukemia
# KM12 colon = test system: KM12 colon
# LOX IMVI melanoma = test system: LOX IMVI melanoma
# M14 melanoma = test system: M14 melanoma
# MALME-3M melanoma = test system: MALME-3M melanoma
# MCF7 breast = test system: MCF7 breast
# MDA-MB-231 breast = test system: MDA-MB-231 breast
# MDA-MB-435 = test system: MDA-MB-435
# MDA-N = test system: MDA-N
# NCI-H226 lung = test system: NCI-H226 lung
# NCI-H23 lung = test system: NCI-H23 lung
# NCI-H522 lung = test system: NCI-H522 lung
# NCI/ADR-RES ovarian = test system: NCI/ADR-RES ovarian
# OVCAR-3 ovarian = test system: OVCAR-3 ovarian
# OVCAR-5 ovarian = test system: OVCAR-5 ovarian
# OVCAR-8 ovarian = test system: OVCAR-8 ovarian
# PC-3 prostate = test system: PC-3 prostate
# RXF 393 renal = test system: RXF 393 renal
# SF-268 CNS = test system: SF-268 CNS
# SF-295 CNS = test system: SF-295 CNS
# SK-MEL-2 melanoma = test system: SK-MEL-2 melanoma
# SK-MEL-28 melanoma = test system: SK-MEL-28 melanoma
# SK-MEL-5 melanoma = test system: SK-MEL-5 melanoma
# SK-OV-3 ovarian = test system: SK-OV-3 ovarian
# SN12C renal = test system: SN12C renal
# SNB-75 CNS = test system: SNB-75 CNS
# SR leukemia = test system: SR leukemia
# SW-620 colon = test system: SW-620 colon
# T-47D breast = test system: T-47D breast
# TK-10 renal = test system: TK-10 renal
# U251 CNS = test system: U251 CNS
# UACC-257 melanoma = test system: UACC-257 melanoma
# UACC-62 melanoma = test system: UACC-62 melanoma
# UO-31 renal = test system: UO-31 renal
# HCT-15 colon = test system: HCT-15 colon
# MOLT-4 leukemia = test system: MOLT-4 leukemia
# NCI-H460 lung = test system: NCI-H460 lung
# OVCAR-4 ovarian = test system: OVCAR-4 ovarian
# RPMI-8226 leukemia = test system: RPMI-8226 leukemia
# SNB-19 CNS = test system: SNB-19 CNS
# SF-539 CNS = test system: SF-539 CNS
structure (smiles),measurement,setting,value
COc1ccc(-c2ncnc(-c3ccc(OC)c(OC)c3)n2)cc1OC,TGI,786-0 renal,> 100 µM
same,TGI,A498 renal,> 100 µM
same,TGI,A549 NSCLC,> 100 µM
same,TGI,ACHN renal,> 100 µM
same,TGI,BT-549 breast,> 100 µM
same,TGI,CAKI-1 renal,> 100 µM
same,TGI,CCRF-CEM leukemia,> 100 µM
same,TGI,COLO 205 colon,> 100 µM
same,TGI,DU-145 prostate,> 100 µM
same,TGI,EKVX NSCLC,> 100 µM
same,TGI,HCC-2998 colon,> 100 µM
same,TGI,HCT-116 colon,> 100 µM
same,TGI,HL-60(TB) leukemia,> 100 µM
same,TGI,HOP-62 NSCLC,> 100 µM
same,TGI,HOP-92 NSCLC,> 100 µM
same,TGI,HS 578T breast,> 100 µM
same,TGI,HT29 colon,> 100 µM
same,TGI,IGROV1 ovarian,> 100 µM
same,TGI,K-562 leukemia,> 100 µM
same,TGI,KM12 colon,> 100 µM
same,TGI,LOX IMVI melanoma,> 100 µM
same,TGI,M14 melanoma,> 100 µM
same,TGI,MALME-3M melanoma,> 100 µM
same,TGI,MCF7 breast,> 100 µM
same,TGI,MDA-MB-231 breast,> 100 µM
same,TGI,MDA-MB-435,> 100 µM
same,TGI,MDA-N,> 100 µM
same,TGI,NCI-H226 lung,> 100 µM
same,TGI,NCI-H23 lung,> 100 µM
same,TGI,NCI-H522 lung,> 100 µM
same,TGI,NCI/ADR-RES ovarian,> 100 µM
same,TGI,OVCAR-3 ovarian,> 100 µM
same,TGI,OVCAR-5 ovarian,> 100 µM
same,TGI,OVCAR-8 ovarian,> 100 µM
same,TGI,PC-3 prostate,> 100 µM
same,TGI,RXF 393 renal,> 100 µM
same,TGI,SF-268 CNS,> 100 µM
same,TGI,SF-295 CNS,> 100 µM
same,TGI,SK-MEL-2 melanoma,> 100 µM
same,TGI,SK-MEL-28 melanoma,> 100 µM
same,TGI,SK-MEL-5 melanoma,> 100 µM
same,TGI,SK-OV-3 ovarian,> 100 µM
same,TGI,SN12C renal,> 100 µM
same,TGI,SNB-75 CNS,> 100 µM
same,TGI,SR leukemia,> 100 µM
same,TGI,SW-620 colon,> 100 µM
same,TGI,T-47D breast,> 100 µM
same,TGI,TK-10 renal,> 100 µM
same,TGI,U251 CNS,> 100 µM
same,TGI,UACC-257 melanoma,> 100 µM
same,TGI,UACC-62 melanoma,> 100 µM
same,TGI,UO-31 renal,> 100 µM
CN(C)C(=O)Oc1ccc[n+](C)c1,TGI,786-0 renal,> 100 µM
same,TGI,A498 renal,> 100 µM
same,TGI,ACHN renal,> 100 µM
same,TGI,BT-549 breast,> 100 µM
same,TGI,CAKI-1 renal,> 100 µM
same,TGI,COLO 205 colon,> 100 µM
same,TGI,DU-145 prostate,> 100 µM
same,TGI,EKVX NSCLC,> 100 µM
same,TGI,HCC-2998 colon,> 100 µM
same,TGI,HCT-116 colon,> 100 µM
same,TGI,HCT-15 colon,> 100 µM
same,TGI,HL-60(TB) leukemia,> 100 µM
same,TGI,HOP-62 NSCLC,> 100 µM
same,TGI,HS 578T breast,> 100 µM
same,TGI,HT29 colon,> 100 µM
same,TGI,IGROV1 ovarian,> 100 µM
same,TGI,K-562 leukemia,> 100 µM
same,TGI,KM12 colon,> 100 µM
same,TGI,LOX IMVI melanoma,> 100 µM
same,TGI,MALME-3M melanoma,> 100 µM
same,TGI,MCF7 breast,> 100 µM
same,TGI,MDA-MB-231 breast,> 100 µM
same,TGI,MDA-MB-435,> 100 µM
same,TGI,MDA-N,> 100 µM
same,TGI,MOLT-4 leukemia,> 100 µM
same,TGI,NCI-H226 lung,> 100 µM
same,TGI,NCI-H23 lung,> 100 µM
same,TGI,NCI-H460 lung,> 100 µM
same,TGI,NCI-H522 lung,> 100 µM
same,TGI,NCI/ADR-RES ovarian,> 100 µM
same,TGI,OVCAR-3 ovarian,> 100 µM
same,TGI,OVCAR-4 ovarian,> 100 µM
same,TGI,OVCAR-5 ovarian,> 100 µM
same,TGI,OVCAR-8 ovarian,> 100 µM
same,TGI,PC-3 prostate,> 100 µM
same,TGI,RPMI-8226 leukemia,> 100 µM
same,TGI,RXF 393 renal,> 100 µM
same,TGI,SF-268 CNS,> 100 µM
same,TGI,SF-295 CNS,> 100 µM
same,TGI,SK-MEL-2 melanoma,> 100 µM
same,TGI,SK-MEL-28 melanoma,> 100 µM
same,TGI,SK-MEL-5 melanoma,> 100 µM
same,TGI,SN12C renal,> 100 µM
same,TGI,SNB-19 CNS,> 100 µM
same,TGI,SNB-75 CNS,> 100 µM
same,TGI,SR leukemia,> 100 µM
same,TGI,SW-620 colon,> 100 µM
same,TGI,T-47D breast,> 100 µM
same,TGI,TK-10 renal,> 100 µM
same,TGI,U251 CNS,> 100 µM
same,TGI,UACC-257 melanoma,> 100 µM
same,TGI,UACC-62 melanoma,> 100 µM
same,TGI,UO-31 renal,> 100 µM
CN(N=O)C(=O)NNC(=O)N(C)N=O,TGI,786-0 renal,95.1 µM
same,TGI,A498 renal,> 100 µM
same,TGI,A549 NSCLC,> 100 µM
same,TGI,ACHN renal,> 100 µM
same,TGI,BT-549 breast,> 100 µM
same,TGI,CAKI-1 renal,> 100 µM
same,TGI,CCRF-CEM leukemia,> 100 µM
same,TGI,COLO 205 colon,> 100 µM
same,TGI,DU-145 prostate,> 100 µM
same,TGI,EKVX NSCLC,> 100 µM
same,TGI,HCC-2998 colon,> 100 µM
same,TGI,HCT-116 colon,> 100 µM
same,TGI,HCT-15 colon,> 100 µM
same,TGI,HL-60(TB) leukemia,> 100 µM
same,TGI,HOP-62 NSCLC,> 100 µM
same,TGI,HOP-92 NSCLC,> 100 µM
same,TGI,HS 578T breast,> 100 µM
same,TGI,HT29 colon,> 100 µM
same,TGI,IGROV1 ovarian,> 100 µM
same,TGI,K-562 leukemia,> 100 µM
same,TGI,KM12 colon,> 100 µM
same,TGI,LOX IMVI melanoma,> 100 µM
same,TGI,M14 melanoma,> 100 µM
same,TGI,MCF7 breast,> 100 µM
same,TGI,MDA-MB-231 breast,> 100 µM
same,TGI,MDA-MB-435,> 100 µM
same,TGI,MDA-N,> 100 µM
same,TGI,MOLT-4 leukemia,> 100 µM
same,TGI,NCI-H226 lung,> 100 µM
same,TGI,NCI-H23 lung,> 100 µM
same,TGI,NCI-H460 lung,> 100 µM
same,TGI,NCI-H522 lung,> 100 µM
same,TGI,NCI/ADR-RES ovarian,> 100 µM
same,TGI,OVCAR-3 ovarian,> 100 µM
same,TGI,OVCAR-4 ovarian,> 100 µM
same,TGI,OVCAR-5 ovarian,> 100 µM
same,TGI,OVCAR-8 ovarian,> 100 µM
same,TGI,PC-3 prostate,> 100 µM
same,TGI,RPMI-8226 leukemia,> 100 µM
same,TGI,RXF 393 renal,85.7 µM
same,TGI,SF-268 CNS,> 100 µM
same,TGI,SF-295 CNS,> 100 µM
same,TGI,SF-539 CNS,> 100 µM
same,TGI,SK-MEL-2 melanoma,> 100 µM
same,TGI,SK-MEL-28 melanoma,> 100 µM
same,TGI,SK-MEL-5 melanoma,> 100 µM
same,TGI,SK-OV-3 ovarian,> 100 µM
same,TGI,SN12C renal,> 100 µM
same,TGI,SNB-19 CNS,> 100 µM
same,TGI,SNB-75 CNS,> 100 µM
same,TGI,SR leukemia,> 100 µM
same,TGI,SW-620 colon,> 100 µM
same,TGI,T-47D breast,> 100 µM
same,TGI,TK-10 renal,> 100 µM
same,TGI,U251 CNS,> 100 µM
same,TGI,UACC-257 melanoma,> 100 µM
same,TGI,UACC-62 melanoma,> 100 µM
same,TGI,UO-31 renal,> 100 µM
